In patent publication US20250032474A1, “COMBINATION OF 8-CHLORO-N-(4-(TRIFLUOROMETHOXY)PHENYL)QUINOLIN-2-AMINE AND ITS DERIVATIVES WITH A S1P RECEPTOR MODULATOR” (ABIVAX, priority 0001, published 2025):

Key:
[1] = system: T cell transfer adoptive model of colitis; experiment: T cell transfer adoptive model of colitis, body weight; assay type: in vivo, C57BL/6NRj-Rag2^tm1Ciphe/Rj mice; conditions: day 55; oral daily; ABX464 100 mg/kg, etrasimod 3 mg/kg, ozanimod 1.5 mg/kg, alone or combined
Description: (§1) 8-week-old male C57BL/6 mice and 6-week-old male C57BL/6NRj-Rag2^tm1Ciphe/Rj mice were purchased from Janvier Labs and housed in accordance with French and European regulations. The colony is maintained at 21±1° C., 50±5% humidity and under an alternating 12/12-hours light/dark cycle (light at 6:00 AM). Standard food and water were given ad libitum. Animals were allowed to acclimate to the animal facility at least 10 days prior to conducting the study.
Spleens were dissected from C57BL/6 male donor mice and placed in a PBS+2% FBS buffer. Single-cell suspension was generated with Gentle Macs Dissociator followed by mashing cells through 40-μm nylon mesh strainers. Cells were pelleted and suspended in ACK lysis buffer for 5 minutes at RT (room temperature) followed by the addition of cold PBS+2% FBS buffer. CD4+ T cells were enriched by negative selection using a CD4+ T-cell isolation kit (Miltenyi) and LS magnetic columns. The flow through was collected, and cells were centrifuged and resuspended in PBS+2% FBS buffer. Antibodies (CD45RB-PE; CD4 FITC) were added and incubated on ice for 30 minutes protected from light. Cells were washed with buffer, centrifuged, resuspended and sorted using BD FACSAria™ Fusion Flow Cytometer. […]
Weight was monitored over the period of the study (55 days), and the effect on body weight over the time period is shown in FIGS. 1A-1B. […]

[2] = system: cytokines (TNFα, IL-6, IFNg, and IL17) in blood; experiment: T cell transfer adoptive model of colitis, cytokine levels in blood (V-PLEX proinflammatory panel); assay type: in vivo, C57BL/6NRj-Rag2^tm1Ciphe/Rj mice; conditions: day 55; oral daily; ABX464 100 mg/kg, etrasimod 3 mg/kg, ozanimod 1.5 mg/kg, alone or combined
Description: as §1
Spleens were dissected from C57BL/6 male donor mice and placed in a PBS+2% FBS buffer. Single-cell suspension was generated with Gentle Macs Dissociator followed by mashing cells through 40-μm nylon mesh strainers. Cells were pelleted and suspended in ACK lysis buffer for 5 minutes at RT (room temperature) followed by the addition of cold PBS+2% FBS buffer. CD4+ T cells were enriched by negative selection using a CD4+ T-cell isolation kit (Miltenyi) and LS magnetic columns. The flow through was collected, and cells were centrifuged and resuspended in PBS+2% FBS buffer. Antibodies (CD45RB-PE; CD4 FITC) were added and incubated on ice for 30 minutes protected from light. Cells were washed with buffer, centrifuged, resuspended and sorted using BD FACSAria™ Fusion Flow Cytometer. CD4+CD45high and CD4+CD45low cells were sorted, centrifuged and resuspended in sterile PBS. A total of 5×10^5 cells CD4+CD45high or CD4+CD45low were intraperitoneally injected to 6-week-old male C57BL/6NRj-Rag2^tm1Ciphe/Rj mice. The group “high” (injected with CD4+CD45high) represents the […] and the group “low” (injected with CD4+CD45low) represents the […].
Rag2^tm1Ciphe/Rj mice injected with CD4+CD45high or CD4+CD45low (controls) were orally dosed daily (10 ml/kg) beginning on the day of the transfer (1 h before the cell transfer at Day 0) until day 55 with vehicle (0.5% methylcellulose) and Rag2^tm1Ciphe/Rj mice injected with CD4+CD45high were orally dosed daily with one of the following 8-Chloro-N-(4-(trifluoromethoxy)phenyl)quinolin-2-amine (ABX464) (100 mg/kg), Etrasimod (3 mg/kg), Ozanimod (1.5 mg/kg), ABX464+Etrasimod (100 mg/kg and 3 mg/kg) or ABX464+Ozanimod (100 mg/kg and 1.5 mg/kg). All mice were weighed daily.
At day 55, mice were anesthetized with isoflurane. Blood was collected at Tmax and mice were euthanized to harvest tissues. Cytokines concentrations plasma were determined using V-PLEX proinflammatory Panel mouse kit (Meso Scale Diagnostics).
Statistical analysis was performed on mean+/−standard deviation by one way ANOVA followed by Kruskal-Wallis's multiple comparisons test. Asterisk indicates the significance of the differences: *P<0.05, **P<0.01, ***P<0.001, ****P<0.0001.
In addition, a Welch ANOVA was performed on log transformed data for each cytokine, based on the above results.
A synergy was assessed by comparing each combination group effect versus vehicle to the sum of the corresponding compound alone groups' effects versus vehicle (Bonferroni-Holm's adjustment for multiplicity).
The following tables give the estimation and 95% confidence interval (95% CI) of the difference between Combination effect and Sum of compounds alone effects for each cytokine.

[3] = system: active SPMS; conditions: cited from earlier work
[4] = system: peripheral blood lymphocytes; conditions: oral administration; cited from earlier work
[5] = system: chronic plaque psoriasis; relapsing-remitting multiple sclerosis; conditions: patients with moderate to severe chronic plaque psoriasis and patients with relapsing-remitting multiple sclerosis; cited from earlier work

SMILES | body weight [1] | plasma level of IFNg [2] | plasma level of IL17 [2] | plasma level of IL-6 [2] | plasma level of TNFα [2] | risk of disability and MS relapses [3] | number of peripheral blood lymphocytes [4] | clinical benefit in phase II/phase III trials [5]
O=C(O)C[C@H]1CCc2c1[nH]c1ccc(OCc3ccc(C4CCCC4)c(C(F)(F)F)c3)cc21 [Etrasimod] | protection from weight loss | reduced | did not reduce | did not reduce | reduced | – | – | –
CCc1cc(/C(C)=N/OCc2ccc(C3CCCCC3)c(C(F)(F)F)c2)ccc1CN1CC(C(=O)O)C1 [Siponimod, 1-(4-[1-[(E)-4-Cyclohexyl-3-trifluoromethyl-benzyloxyimino]-ethyl]-2-ethyl-benzyl)-azetidine-3-carboxylic acid] | – | – | – | – | – | decreases | – | –
CCC/N=C1\S/C(=C\c2ccc(OC[C@H](O)CO)c(Cl)c2)C(=O)N1c1ccccc1C [Ponesimod, (R)-5-[3-chloro-4-(2,3-dihydroxy-propoxy)-benz[Z]ylidene]-2-([Z]-propylimino)-3-o-tolyl-thiazolidin-4-one] | – | – | – | – | – | – | consistent, sustained, and dose-dependent reduction | clinical benefit
FC(F)(F)Oc1ccc(Nc2ccc3cccc(Cl)c3n2)cc1 [ABX464, 8-Chloro-N-(4-(trifluoromethoxy)phenyl)quinolin-2-amine] | weight gain | did not reduce | reduced | did not reduce | reduced | – | – | –
CC(C)Oc1ccc(-c2nc(-c3cccc4c3CC[C@@H]4NCCO)no2)cc1C#N [Ozanimod] | – | reduced | did not reduce | did not reduce | reduced | – | – | –
